Patent US20170008888A1 (KYORIN PHARMACEUTICAL CO., LTD., priority 2014, published 2017)
pEC50, pIC50: −log10 of the molar value.

Experiments:
ERK5 = target: T1, ERK5 (Homo sapiens, UniProt Q13164); test: Probe-based (AX9989 acyl phosphate ATP probe) kinase profiling in Jurkat lysate: ERK5; type: binding; settings: for pIC50: calculated from percent inhibition of AX9989 labeling and the screening concentration, Jurkat lysate; for inhibition at 1 µM: screening concentration 1.0 μM, read-out: Kinase inhibition % at indicated screening concentration: ERK5
T1 construct: screened for activity against several kinases in Jurkat cells; endogenous in cells; host or cells: Jurkat cell lysate
T1 sequence (Q13164 whole entry): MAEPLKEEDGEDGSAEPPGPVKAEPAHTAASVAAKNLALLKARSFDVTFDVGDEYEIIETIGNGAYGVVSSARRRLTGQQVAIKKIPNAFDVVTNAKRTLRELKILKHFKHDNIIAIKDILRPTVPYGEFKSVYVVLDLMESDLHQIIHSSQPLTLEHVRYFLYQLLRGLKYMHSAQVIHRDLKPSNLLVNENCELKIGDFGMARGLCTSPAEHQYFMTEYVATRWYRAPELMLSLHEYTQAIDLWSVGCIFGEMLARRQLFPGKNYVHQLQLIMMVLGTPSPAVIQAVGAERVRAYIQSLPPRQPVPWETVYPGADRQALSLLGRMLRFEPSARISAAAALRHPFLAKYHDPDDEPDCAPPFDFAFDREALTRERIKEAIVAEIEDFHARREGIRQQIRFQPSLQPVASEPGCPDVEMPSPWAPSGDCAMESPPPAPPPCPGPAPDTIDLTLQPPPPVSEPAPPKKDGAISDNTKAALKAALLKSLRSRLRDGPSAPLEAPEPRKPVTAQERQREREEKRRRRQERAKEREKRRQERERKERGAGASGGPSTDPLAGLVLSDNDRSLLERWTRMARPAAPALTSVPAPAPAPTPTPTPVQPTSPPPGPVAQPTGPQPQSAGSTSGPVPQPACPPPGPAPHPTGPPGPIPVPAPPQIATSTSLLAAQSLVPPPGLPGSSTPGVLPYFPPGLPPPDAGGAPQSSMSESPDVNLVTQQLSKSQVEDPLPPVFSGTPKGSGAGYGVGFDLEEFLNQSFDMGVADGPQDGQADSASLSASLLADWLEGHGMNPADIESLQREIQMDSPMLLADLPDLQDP
Protocol: (§1) In this example, potency of the compounds as ERK5 inhibitors was assessed, and the compounds were screened for activity against several kinases in Jurkat cells.
(§2) Jurkat cell pellets were resuspended in four volumes of lysis buffer (50 mM HEPES pH 7.5, 150 mM NaCl, 0.1% Triton-X-100, 1% v/v phosphatase, inhibitor cocktail II [EMD/Calbiochem, #524625]), sonicated using a tip, sonicator, and Dounce homogenized. Lysate was cleared by centrifugation, at 16,000 g for 15 min., was gel filtered (BioRad 10DG) and MnCl2 was then added to a final concentration of 20 mM before treatment with the test compound and probe labeling. […] All compound treatments were performed at room temperature.
(§3) Acyl phosphate ATP probe (AX9989) labeling reactions were performed at room temperature with a final probe concentration of 5 μM after a 15 min pre-incubation of lysate with a test compound. All reactions were performed in duplicate, using 445 μl/sample at 5 mg/ml. Probe-labeled lysates were denatured and reduced (6 M urea, 10 mM DTT, 65° C., 15 min), alkylated (40 mM iodoacetamide, 37° C., 30 min, and gel filtered (Sephadex G25) into 10 mM ammonium bicarbonate, 2 M urea, 5 mM methionine. The desalted protein mixture was digested with trypsin (0.015 mg/ml) for 1 hr at 37° C., and desthiobiotinylated peptides were captured using a […] high-capacity streptavidin resin (Thermo Scientific). Captured peptides were then washed extensively using 150 μl/wash with three different wash buffers: (A) 3 times with 1% triton, 0.5% tergitol, 1 mM EDTA in PBS; (B) 18 times with PBS; and (C) 8 times with HPLC grade water. Peptides were eluted from the streptavidin beads using two 35-μL washes of a 50% CH3CN/water mixture containing 0.1% TFA at room temperature.
(§4) Kinase active site peptides were identified and quantified using LC/MS. Percent inhibition was calculated as the normalized decrease in the ESI-MS fragment intensities of probe-labeled peptides in samples incubated with the test compound compared to those without.
ERK5 IC50 values were calculated from the percent inhibition and the screening concentration.

human PBMCs = test: Human PBMC TNF-α response to endotoxin (ELISA); type: cell-based; settings: 0.1 μg/ml LPS 16 h, read-out: EC50 for the inhibition of the human PBMC TNF-α response to endotoxin, ave. ± S.D.
Protocol: Human PBMCs (Astarte Biologics, Redmond, Wash.) were seeded at 2e6 cells/ml in RPMI 1640 containing 10% (v/v) charcoal-dextran treated, heat inactivated FBS (Omega Scientific, Tarzana, Calif.), 0.05 mM 2-Mercaptoethanol (Sigma-Aldrich, St. Louis, Mo.), and 1×Pen/Strep Amphotericin B (Lonza, Allendale, N.J.). Cells were pre-treated with test compounds (10 μM down by ⅕ in a 4-point serial dilution series) for 1 h at 37° C. in a humidified atmosphere at 5% CO2. Cells were then stimulated with 0.1 μg/ml lipopolysaccharide (LPS) from E. coli 0111:B4 (EMD Millipore, Billerica, Mass.) for 16 h at 37° C. in a humidified atmosphere at 5% CO2. Supernatant was collected and a 25-fold dilution was analyzed for TNF-α concentration using an ELISA kit from Life Technologies (Grand Island, N.Y.) according to the manufacturer's instructions. Absorbance at 450 nm was read using the Synergy 2 multi-detection microplate reader (BioTek Instruments, Winooski, Vt.).

AurA = target: T2, AurA (Homo sapiens, UniProt O14965); test: Probe-based (AX9989) kinase profiling in Jurkat lysate: AurA; type: binding; settings: screening concentration 1.0 μM; read-out: Kinase inhibition % at indicated screening concentration: AurA
T2 construct: screened for activity against several kinases in Jurkat cells; endogenous in cells; host or cells: Jurkat cell lysate
T2 sequence (O14965 1-403): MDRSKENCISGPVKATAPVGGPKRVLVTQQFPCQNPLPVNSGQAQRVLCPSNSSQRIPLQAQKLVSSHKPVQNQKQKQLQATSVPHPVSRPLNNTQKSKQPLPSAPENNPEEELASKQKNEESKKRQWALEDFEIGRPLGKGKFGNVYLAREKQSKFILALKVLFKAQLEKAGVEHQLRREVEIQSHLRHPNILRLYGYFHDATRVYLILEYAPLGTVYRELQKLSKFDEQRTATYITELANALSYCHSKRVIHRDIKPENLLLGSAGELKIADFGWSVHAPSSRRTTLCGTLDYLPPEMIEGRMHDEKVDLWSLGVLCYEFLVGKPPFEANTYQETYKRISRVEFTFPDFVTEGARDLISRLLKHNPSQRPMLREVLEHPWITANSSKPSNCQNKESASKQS
Protocol: as §1, §2, §3, §4

AurB or AurC = test: Probe-based (AX9989) kinase profiling in Jurkat lysate: AurB or AurC; type: binding; settings: screening concentration 1.0 μM
Protocol: as §1, §2, §3, §4

JAK1 = target: T3, JAK1 (Homo sapiens, UniProt P23458); test: Probe-based (AX9989) kinase profiling in Jurkat lysate: JAK1; type: binding; settings: screening concentration 1.0 μM; read-out: Kinase inhibition % at indicated screening concentration: JAK1
T3 construct: screened for activity against several kinases in Jurkat cells; endogenous in cells; host or cells: Jurkat cell lysate
T3 sequence (P23458 whole entry): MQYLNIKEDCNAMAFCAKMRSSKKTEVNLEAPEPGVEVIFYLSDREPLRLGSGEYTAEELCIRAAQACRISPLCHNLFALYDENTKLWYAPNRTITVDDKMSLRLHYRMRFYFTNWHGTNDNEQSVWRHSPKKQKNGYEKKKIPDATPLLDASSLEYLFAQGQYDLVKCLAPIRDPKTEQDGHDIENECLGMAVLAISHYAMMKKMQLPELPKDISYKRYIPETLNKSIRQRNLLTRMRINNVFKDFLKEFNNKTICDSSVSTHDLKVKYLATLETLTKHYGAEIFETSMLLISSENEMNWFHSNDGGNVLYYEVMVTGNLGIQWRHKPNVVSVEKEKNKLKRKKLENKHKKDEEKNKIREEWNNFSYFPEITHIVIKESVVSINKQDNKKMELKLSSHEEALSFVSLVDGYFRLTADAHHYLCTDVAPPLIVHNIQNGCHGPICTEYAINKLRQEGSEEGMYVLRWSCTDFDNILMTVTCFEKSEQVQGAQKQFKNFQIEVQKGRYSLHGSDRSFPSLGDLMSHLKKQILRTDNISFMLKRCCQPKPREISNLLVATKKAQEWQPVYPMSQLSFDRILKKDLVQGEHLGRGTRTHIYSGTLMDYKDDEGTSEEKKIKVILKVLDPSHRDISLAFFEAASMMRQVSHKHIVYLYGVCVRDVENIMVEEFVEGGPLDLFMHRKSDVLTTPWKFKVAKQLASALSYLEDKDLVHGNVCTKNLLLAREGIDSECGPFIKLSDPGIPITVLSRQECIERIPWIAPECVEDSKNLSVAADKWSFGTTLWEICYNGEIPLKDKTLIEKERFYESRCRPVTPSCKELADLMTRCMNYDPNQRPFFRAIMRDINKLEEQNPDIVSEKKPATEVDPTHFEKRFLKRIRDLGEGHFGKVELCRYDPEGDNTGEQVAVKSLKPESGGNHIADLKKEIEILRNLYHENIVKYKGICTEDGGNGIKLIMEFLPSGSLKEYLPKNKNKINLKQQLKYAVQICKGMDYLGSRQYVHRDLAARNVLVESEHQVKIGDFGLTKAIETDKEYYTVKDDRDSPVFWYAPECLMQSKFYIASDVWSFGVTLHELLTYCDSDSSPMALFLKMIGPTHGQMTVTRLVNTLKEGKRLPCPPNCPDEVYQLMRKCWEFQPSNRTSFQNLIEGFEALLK
Protocol: as §1, §2, §3, §4

AMPKa1 or AMPKa2 = test: Probe-based (AX9989) kinase profiling in Jurkat lysate: AMPKa1 or AMPKa2; type: binding; settings: screening concentration 1.0 μM
Protocol: as §1, §2, §3, §4

TAO2 = target: T4, TAO2 (Homo sapiens, UniProt Q9UL54); test: Probe-based (AX9989) kinase profiling in Jurkat lysate: TAO2; type: binding; settings: screening concentration 1.0 μM; read-out: Kinase inhibition % at indicated screening concentration: TAO2
T4 construct: screened for activity against several kinases in Jurkat cells; endogenous in cells; host or cells: Jurkat cell lysate
T4 sequence (Q9UL54 1-1235): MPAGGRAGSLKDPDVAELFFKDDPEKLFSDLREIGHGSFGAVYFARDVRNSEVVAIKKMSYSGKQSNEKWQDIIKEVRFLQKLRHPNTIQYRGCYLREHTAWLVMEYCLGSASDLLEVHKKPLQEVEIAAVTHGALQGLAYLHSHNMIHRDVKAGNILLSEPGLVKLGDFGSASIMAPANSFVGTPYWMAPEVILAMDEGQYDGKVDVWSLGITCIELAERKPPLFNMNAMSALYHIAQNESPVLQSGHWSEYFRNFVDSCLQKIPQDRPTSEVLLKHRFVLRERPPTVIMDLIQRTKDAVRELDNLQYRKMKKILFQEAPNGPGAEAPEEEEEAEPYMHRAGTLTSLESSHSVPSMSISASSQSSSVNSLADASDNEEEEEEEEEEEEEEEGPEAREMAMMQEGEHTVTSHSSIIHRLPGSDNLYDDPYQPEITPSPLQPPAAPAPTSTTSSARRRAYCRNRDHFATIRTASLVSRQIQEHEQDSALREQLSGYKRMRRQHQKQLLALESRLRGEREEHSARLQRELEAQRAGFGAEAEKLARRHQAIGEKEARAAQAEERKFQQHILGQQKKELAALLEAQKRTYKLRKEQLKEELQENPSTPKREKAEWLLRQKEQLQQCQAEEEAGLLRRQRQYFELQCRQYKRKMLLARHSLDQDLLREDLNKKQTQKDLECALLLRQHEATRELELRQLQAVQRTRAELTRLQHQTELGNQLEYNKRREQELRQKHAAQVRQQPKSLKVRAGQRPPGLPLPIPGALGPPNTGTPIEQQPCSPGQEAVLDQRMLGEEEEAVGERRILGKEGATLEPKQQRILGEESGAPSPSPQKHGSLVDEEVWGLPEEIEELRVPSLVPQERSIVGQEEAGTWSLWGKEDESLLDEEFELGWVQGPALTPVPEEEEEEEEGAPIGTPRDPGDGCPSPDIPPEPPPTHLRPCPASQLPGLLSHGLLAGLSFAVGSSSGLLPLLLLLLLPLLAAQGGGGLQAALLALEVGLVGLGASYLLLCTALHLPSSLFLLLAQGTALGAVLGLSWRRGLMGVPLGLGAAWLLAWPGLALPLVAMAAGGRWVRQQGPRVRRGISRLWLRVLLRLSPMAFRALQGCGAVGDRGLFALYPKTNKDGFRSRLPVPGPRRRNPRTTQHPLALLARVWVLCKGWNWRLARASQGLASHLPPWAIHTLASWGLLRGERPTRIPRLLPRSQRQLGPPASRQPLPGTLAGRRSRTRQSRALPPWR
Protocol: as §1, §2, §3, §4

ACK = target: T5, ACK (Homo sapiens, UniProt Q07912); test: Probe-based (AX9989) kinase profiling in Jurkat lysate: ACK; type: binding; settings: screening concentration 1.0 μM; read-out: Kinase inhibition % at indicated screening concentration: ACK
T5 construct: screened for activity against several kinases in Jurkat cells; endogenous in cells; host or cells: Jurkat cell lysate
T5 sequence (Q07912 whole entry): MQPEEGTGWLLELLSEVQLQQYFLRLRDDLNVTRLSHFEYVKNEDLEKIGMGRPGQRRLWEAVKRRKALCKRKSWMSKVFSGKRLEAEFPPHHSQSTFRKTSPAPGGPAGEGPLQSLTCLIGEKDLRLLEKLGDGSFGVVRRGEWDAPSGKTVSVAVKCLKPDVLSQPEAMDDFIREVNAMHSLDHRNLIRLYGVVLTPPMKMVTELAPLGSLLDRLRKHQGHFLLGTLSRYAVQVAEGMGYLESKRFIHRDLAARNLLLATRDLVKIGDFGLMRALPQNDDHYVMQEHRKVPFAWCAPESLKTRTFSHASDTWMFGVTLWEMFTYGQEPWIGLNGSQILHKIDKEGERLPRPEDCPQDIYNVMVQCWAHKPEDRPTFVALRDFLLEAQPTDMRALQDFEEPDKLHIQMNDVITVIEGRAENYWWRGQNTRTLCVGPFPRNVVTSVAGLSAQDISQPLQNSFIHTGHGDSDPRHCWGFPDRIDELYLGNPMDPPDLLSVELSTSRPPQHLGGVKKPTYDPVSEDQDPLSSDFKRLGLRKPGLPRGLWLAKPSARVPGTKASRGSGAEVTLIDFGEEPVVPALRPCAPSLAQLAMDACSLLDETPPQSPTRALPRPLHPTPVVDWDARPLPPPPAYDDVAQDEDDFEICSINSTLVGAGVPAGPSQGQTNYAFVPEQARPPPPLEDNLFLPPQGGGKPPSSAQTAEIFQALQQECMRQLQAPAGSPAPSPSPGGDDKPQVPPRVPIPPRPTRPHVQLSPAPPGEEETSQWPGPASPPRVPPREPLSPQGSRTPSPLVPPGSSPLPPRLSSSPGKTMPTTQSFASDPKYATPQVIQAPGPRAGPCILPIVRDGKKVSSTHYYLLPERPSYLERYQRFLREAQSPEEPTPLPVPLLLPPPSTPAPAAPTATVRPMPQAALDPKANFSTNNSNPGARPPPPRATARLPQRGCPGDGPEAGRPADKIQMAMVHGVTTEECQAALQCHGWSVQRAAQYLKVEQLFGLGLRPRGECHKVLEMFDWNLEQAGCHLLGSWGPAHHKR
Protocol: as §1, §2, §3, §4

ABL or ARG = test: Probe-based (AX9989) kinase profiling in Jurkat lysate: ABL or ARG; type: binding; settings: screening concentration 1.0 μM
Protocol: as §1, §2, §3, §4

SMILES	pEC50 (human PBMCs)	also measured
Cc1ccc(Nc2cc3c(cn2)N(C)C(=O)c2ccccc2N3C)c(C)c1 [Compound 3]	5.37	pIC50 (ERK5): < 6.30; inhibition at 1 µM (ERK5): 35 to 50%
CCOc1ccccc1Nc1cc2c(cn1)N(C)C(=O)c1ccccc1N2C [Compound 13]	–	pIC50 (ERK5): < 6.30; inhibition at 1 µM (ERK5): 50 to 75%; inhibition at 1 µM (AurA): ≤ 35%; Kinase inhibition % at indicated screening concentration: AurB or AurC (AurB or AurC): E (E is ≦35%); inhibition at 1 µM (JAK1): ≤ 35%; Kinase inhibition % at indicated screening concentration: AMPKa1 or AMPKa2 (AMPKa1 or AMPKa2): E (E is ≦35%); inhibition at 1 µM (TAO2): ≤ 35%; inhibition at 1 µM (ACK): ≤ 35%; Kinase inhibition % at indicated screening concentration: ABL or ARG (ABL or ARG): E (E is ≦35%)
CCOc1cc(C(=O)O)ccc1Nc1cc2c(cn1)N(C)C(=O)c1ccccc1N2C [Compound 18, 4-(5,11-Dimethyl-10-oxo-10,11-dihydro-5H-benzo[e]pyrido[3,4-b][1,4]diazepin-3-ylamino)-3-ethoxybenzoic acid]	–	pIC50 (ERK5): < 6.30; inhibition at 1 µM (ERK5): 50 to 75%; inhibition at 1 µM (AurA): ≤ 35%; Kinase inhibition % at indicated screening concentration: AurB or AurC (AurB or AurC): E (E is ≦35%); inhibition at 1 µM (JAK1): ≤ 35%; Kinase inhibition % at indicated screening concentration: AMPKa1 or AMPKa2 (AMPKa1 or AMPKa2): E (E is ≦35%); inhibition at 1 µM (TAO2): ≤ 35%; inhibition at 1 µM (ACK): ≤ 35%; Kinase inhibition % at indicated screening concentration: ABL or ARG (ABL or ARG): E (E is ≦35%)
CCOc1cc(C(=O)N(C)C)ccc1Nc1cc2c(cn1)N(C)C(=O)c1ccccc1N2C [Compound 117]	5.83	–
CCN(CC)CCN(C)C(=O)c1ccc(OC)c(Nc2cc3c(cn2)N(C)C(=O)c2ccccc2N3C)c1 [Compound 118]	5.48	–
CCN(CC)CCN(C)C(=O)c1cccc(Nc2cc3c(cn2)N(C)C(=O)c2ccccc2N3C)c1OC [Compound 119]	5.40	–
CCOc1cc(C(=O)N(CCO)CCO)ccc1Nc1cc2c(cn1)N(C)C(=O)c1ccccc1N2C [Compound 121]	6.02	–
CCOc1cc(C(=O)N2CC[C@@H](NC3CCN(C)CC3)C2)ccc1Nc1cc2c(cn1)N(C)C(=O)c1ccccc1N2C [Compound T60]	6.02	–
CCOc1cc(C(=O)N[C@H]2CC[C@H](O)CC2)ccc1Nc1cc2c(cn1)N(C)C(=O)c1ccccc1S2 [Compound T90]	< 4.82	–
CCOc1cc(C(=O)N[C@H]2CC[C@H](O)CC2)ccc1Nc1cc2c(cn1)N(C)C(=O)c1ccccc1S2(=O)=O [Compound T91]	< 4.82	–
CCOc1cc(C(=O)N2CCN(C3CCN(C)CC3)CC2)ccc1Nc1cc2c(cn1)N(C)C(=O)c1ccccc1S2(=O)=O [Compound T101]	< 4.82	–
CN1C(=O)c2ccccc2N(C)c2cc(NC3CCCCC3O)ncc21 (centres unmarked) [Compound T108]	5.52	–
CN1C(=O)c2ccccc2N(C)c2cc(N[C@@H]3CCCCC3O)ncc21 (some centres unmarked) [Compound T109]	5.67	–
CN1C(=O)c2ccccc2N(C)c2cc(N[C@@H]3CCC[C@H](O)C3)ncc21 [Compound T111]	5.72	–
CCO[C@@H]1CCCC[C@H]1Nc1cc2c(cn1)N(C)C(=O)c1ccccc1N2C [Compound T112]	5.63	–
Cc1cccc2c1N(C)c1cc(N[C@H]3CC[C@H](O)CC3)ncc1N(C)C2=O [Compound T121]	5.52	–
CN1C(=O)c2ccccc2N(C)c2cc(N[C@H]3CC[C@@](C)(O)CC3)ncc21 [Compound T123]	5.68	–
CN1C(=O)c2ccccc2N(C)c2cc(NC3CCN(S(=O)(=O)CCN4CCCC4)CC3)ncc21 [Compound T130]	5.61	–
CN1C(=O)c2ccccc2N(C)c2cc(N[C@H]3C[C@@H](O)C3)ncc21 [Compound T131]	5.22	–
CN1C(=O)c2ccccc2N(C)c2cc(N[C@@H]3CC[C@@H](O)C3)ncc21 [Compound T132]	5.48	–
CN1C(=O)c2ccccc2N(C)c2cc(N[C@H]3CC[C@H](N)C3)ncc21 [Compound T133]	5.01	–
CN1C(=O)c2ccccc2N(C)c2cc(N[C@H]3CC[C@@H](O)C3)ncc21 [Compound T134]	5.43	–
CN1C(=O)c2ccccc2N(C)c2cc(N[C@H]3C[C@H](N)C3)ncc21 [Compound T135]	5.04	–
